Data from PubChem BioAssay AID1845210 (Molecular Pharmacology Branch, DTP, NCI, 2023).

Tested on: NCI-H226 complex tumor spheroids, viability
Assay: Anticancer human tumor NCI-H226 cell line growth inhibition;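 note: spheroids exposed to compound for 7 days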;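 for viability, T/C: 100% = DMSO vehicle control viability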
Details: for IC50: curve of first compound; for viability, T/C: stronger effect = lower value
Procedure, shortened: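 Single agents and combinations were tested on spheroids built from tumor cells plus HUVEC and hMSC, at half-log dilutions starting at or near clinical Cmax, else 10 microM; final DMSO 0.25% (v/v).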

[1] = second compound 0.003 µM, first compound 0.0316 µM
[2] = second compound 0.003 µM, first compound 0.1 µM
[3] = second compound 0.003 µM, first compound 0.316 µM
[4] = second compound 0.003 µM, first compound 1 µM
[5] = second compound 0.003 µM, first compound 3.16 µM
[6] = second compound 0.003 µM, first compound 10 µM
[7] = second compound 0.00949 µM, first compound 0.0316 µM
[8] = second compound 0.00949 µM, first compound 0.1 µM
[9] = second compound 0.00949 µM, first compound 0.316 µM
[10] = second compound 0.00949 µM, first compound 1 µM
[11] = second compound 0.00949 µM, first compound 3.16 µM
[12] = second compound 0.00949 µM, first compound 10 µM
[13] = second compound 0.03 µM, first compound 0.0316 µM
[14] = second compound 0.03 µM, first compound 0.1 µM
[15] = second compound 0.03 µM, first compound 0.316 µM
[16] = second compound 0.03 µM, first compound 1 µM
[17] = second compound 0.03 µM, first compound 3.16 µM
[18] = second compound 0.03 µM, first compound 10 µM
[19] = second compound 0.0949 µM, first compound 0.0316 µM
[20] = second compound 0.0949 µM, first compound 0.1 µM
[21] = second compound 0.0949 µM, first compound 0.316 µM
[22] = second compound 0.0949 µM, first compound 1 µM
[23] = second compound 0.0949 µM, first compound 3.16 µM
[24] = second compound 0.0949 µM, first compound 10 µM
[25] = second compound 0.3 µM, first compound 0.0316 µM
[26] = second compound 0.3 µM, first compound 0.1 µM
[27] = second compound 0.3 µM, first compound 0.316 µM
[28] = second compound 0.3 µM, first compound 1 µM
[29] = second compound 0.3 µM, first compound 3.16 µM
[30] = second compound 0.3 µM, first compound 10 µM
[31] = second compound 30 pM, first compound 0.00949 µM
[32] = second compound 30 pM, first compound 0.03 µM
[33] = second compound 30 pM, first compound 0.0949 µM
[34] = second compound 30 pM, first compound 0.3 µM
[35] = second compound 30 pM, first compound 0.949 µM
[36] = second compound 30 pM, first compound 3 µM
[37] = second compound 94.9 pM, first compound 0.00949 µM
[38] = second compound 94.9 pM, first compound 0.03 µM
[39] = second compound 94.9 pM, first compound 0.0949 µM
[40] = second compound 94.9 pM, first compound 0.3 µM
[41] = second compound 94.9 pM, first compound 0.949 µM
[42] = second compound 94.9 pM, first compound 3 µM
[43] = second compound 0.0003 µM, first compound 0.00949 µM
[44] = second compound 0.0003 µM, first compound 0.03 µM
[45] = second compound 0.0003 µM, first compound 0.0949 µM
[46] = second compound 0.0003 µM, first compound 0.3 µM
[47] = second compound 0.0003 µM, first compound 0.949 µM
[48] = second compound 0.0003 µM, first compound 3 µM
[49] = second compound 0.000949 µM, first compound 0.00949 µM
[50] = second compound 0.000949 µM, first compound 0.03 µM
[51] = second compound 0.000949 µM, first compound 0.0949 µM
[52] = second compound 0.000949 µM, first compound 0.3 µM
[53] = second compound 0.000949 µM, first compound 0.949 µM
[54] = second compound 0.000949 µM, first compound 3 µM
[55] = second compound 0.003 µM, first compound 0.00949 µM
[56] = second compound 0.003 µM, first compound 0.03 µM
[57] = second compound 0.003 µM, first compound 0.0949 µM
[58] = second compound 0.003 µM, first compound 0.3 µM
[59] = second compound 0.003 µM, first compound 0.949 µM
[60] = second compound 0.003 µM, first compound 3 µM

CC(C)n1c(=O)n(C)c2cnc3cc(F)c(-c4ccc(OCCCN5CCCCC5)nc4)cc3c21 + CC[C@@]1(O)C(=O)OCc2c1cc1n(c2=O)Cc2cc3c(CN(C)C)c(O)ccc3nc2-1
IC50 (second compound 0.003 µM): 6.02 µM
IC50 (second compound 0.00949 µM): 5.72 µM
IC50 (second compound 0.03 µM): 5.24 µM
IC50 (second compound 0.0949 µM): 4.41 µM
IC50 (second compound 0.3 µM): 5.01 µM
viability, T/C [1]: 99.8%
viability, T/C [2]: 92.3%
viability, T/C [3]: 94.5%
viability, T/C [4]: 93.9%
viability, T/C [5]: 82.3%
viability, T/C [6]: 24.5%
viability, T/C [7]: 86.4%
viability, T/C [8]: 86.5%
viability, T/C [9]: 86.5%
viability, T/C [10]: 86.3%
viability, T/C [11]: 84%
viability, T/C [12]: 17.9%
viability, T/C [13]: 81.4%
viability, T/C [14]: 78.3%
viability, T/C [15]: 83.2%
viability, T/C [16]: 75.4%
viability, T/C [17]: 73.2%
viability, T/C [18]: 21%
viability, T/C [19]: 87.4%
viability, T/C [20]: 85.3%
viability, T/C [21]: 75.7%
viability, T/C [22]: 77.9%
viability, T/C [23]: 61.5%
viability, T/C [24]: 22.8%
viability, T/C [25]: 92.2%
viability, T/C [26]: 84.3%
viability, T/C [27]: 73.4%
viability, T/C [28]: 84.1%
viability, T/C [29]: 71.8%
viability, T/C [30]: 17%

COc1ccc([C@@H](O)c2cc(-c3ncnc4cc(N5CCOCC5)ccc34)c(F)cc2Cl)nn1 + CC[C@@]1(O)C(=O)OCc2c1cc1n(c2=O)Cc2cc3c(CN(C)C)c(O)ccc3nc2-1
IC50 (second compound 0.003 µM): 4.24 µM
IC50 (second compound 0.00949 µM): 2.92 µM
IC50 (second compound 0.03 µM): 1.88 µM
IC50 (second compound 0.0949 µM): 2.48 µM
IC50 (second compound 0.3 µM): 1.52 µM
viability, T/C [1]: 98.2%
viability, T/C [2]: 96.3%
viability, T/C [3]: 88.3%
viability, T/C [4]: 71.1%
viability, T/C [5]: 56.7%
viability, T/C [6]: 34.7%
viability, T/C [7]: 87.8%
viability, T/C [8]: 98.7%
viability, T/C [9]: 90.6%
viability, T/C [10]: 74.5%
viability, T/C [11]: 48.9%
viability, T/C [12]: 35.2%
viability, T/C [13]: 79.6%
viability, T/C [14]: 81.7%
viability, T/C [15]: 75.6%
viability, T/C [16]: 57.1%
viability, T/C [17]: 44.1%
viability, T/C [18]: 30.2%
viability, T/C [19]: 90.4%
viability, T/C [20]: 83.1%
viability, T/C [21]: 74.8%
viability, T/C [22]: 65.2%
viability, T/C [23]: 44.8%
viability, T/C [24]: 30.3%
viability, T/C [25]: 68.1%
viability, T/C [26]: 73.2%
viability, T/C [27]: 65.9%
viability, T/C [28]: 55.8%
viability, T/C [29]: 39.8%
viability, T/C [30]: 30.8%

CNCc1ccc(-c2cc(-c3nc(-c4ccc(S(=O)(=O)C(C)C)cc4)cnc3N)on2)cc1 + COc1cc2c(cc1O)CCNC21CSC2c3c(OC(C)=O)c(C)c4c(c3C(COC1=O)N1C(O)C3Cc5cc(C)c(OC)c(O)c5C(C21)N3C)OCO4
IC50 (second compound 30 pM): 1.61 µM
IC50 (second compound 94.9 pM): 1.48 µM
IC50 (second compound 0.0003 µM): 1.5 µM
IC50 (second compound 0.000949 µM): 1.02 µM
IC50 (second compound 0.003 µM): < 0.00949 µM
viability, T/C [31]: 89.5%
viability, T/C [32]: 96.1%
viability, T/C [33]: 103%
viability, T/C [34]: 123%
viability, T/C [35]: 91.9%
viability, T/C [36]: 0.9%
viability, T/C [37]: 85.9%
viability, T/C [38]: 99.4%
viability, T/C [39]: 105%
viability, T/C [40]: 127%
viability, T/C [41]: 80.9%
viability, T/C [42]: 0.45%
viability, T/C [43]: 89.7%
viability, T/C [44]: 105%
viability, T/C [45]: 106%
viability, T/C [46]: 138%
viability, T/C [47]: 82.9%
viability, T/C [48]: 0.44%
viability, T/C [49]: 88.1%
viability, T/C [50]: 94.1%
viability, T/C [51]: 124%
viability, T/C [52]: 91.4%
viability, T/C [53]: 53.9%
viability, T/C [54]: 0.33%
viability, T/C [55]: 2.12%
viability, T/C [56]: 1.88%
viability, T/C [57]: 3%
viability, T/C [58]: 1.46%
viability, T/C [59]: 0.37%
viability, T/C [60]: 0.31%

Cn1ncnc1[C@H]1c2n[nH]c(=O)c3cc(F)cc(c23)N[C@@H]1c1ccc(F)cc1 + COc1cc2c(cc1O)CCNC21CSC2c3c(OC(C)=O)c(C)c4c(c3C(COC1=O)N1C(O)C3Cc5cc(C)c(OC)c(O)c5C(C21)N3C)OCO4
IC50 (second compound 30 pM): > 3 µM
IC50 (second compound 94.9 pM): > 3 µM
IC50 (second compound 0.0003 µM): > 3 µM
IC50 (second compound 0.000949 µM): > 3 µM
IC50 (second compound 0.003 µM): 0.157 µM
viability, T/C [31]: 90%
viability, T/C [32]: 103%
viability, T/C [33]: 106%
viability, T/C [34]: 92.8%
viability, T/C [35]: 91.3%
viability, T/C [36]: 111%
viability, T/C [37]: 103%
viability, T/C [38]: 101%
viability, T/C [39]: 104%
viability, T/C [40]: 102%
viability, T/C [41]: 101%
viability, T/C [42]: 110%
viability, T/C [43]: 122%
viability, T/C [44]: 100%
viability, T/C [45]: 113%
viability, T/C [46]: 119%
viability, T/C [47]: 119%
viability, T/C [48]: 113%
viability, T/C [49]: 79.2%
viability, T/C [50]: 76.2%
viability, T/C [51]: 71.1%
viability, T/C [52]: 93.3%
viability, T/C [53]: 87.1%
viability, T/C [54]: 76.2%
viability, T/C [55]: 53.1%
viability, T/C [56]: 70.3%
viability, T/C [57]: 85.7%
viability, T/C [58]: 24.9%
viability, T/C [59]: 20.6%
viability, T/C [60]: 0.42%

O=C(c1cc(Cc2n[nH]c(=O)c3ccccc23)ccc1F)N1CCN(C(=O)C2CC2)CC1 + COc1cc2c(cc1O)CCNC21CSC2c3c(OC(C)=O)c(C)c4c(c3C(COC1=O)N1C(O)C3Cc5cc(C)c(OC)c(O)c5C(C21)N3C)OCO4
IC50 (second compound 30 pM): > 30 µM
IC50 (second compound 94.9 pM): > 30 µM
IC50 (second compound 0.0003 µM): > 30 µM
IC50 (second compound 0.000949 µM): > 30 µM
IC50 (second compound 0.003 µM): < 0.0949 µM
viability, T/C [33]: 94.5%
viability, T/C [34]: 109%
viability, T/C [35]: 109%
viability, T/C [36]: 108%
viability, T/C (second compound 30 pM, first compound 9.49 µM): 99.4%
viability, T/C (second compound 30 pM, first compound 30 µM): 82.5%
viability, T/C [39]: 109%
viability, T/C [40]: 95%
viability, T/C [41]: 105%
viability, T/C [42]: 101%
viability, T/C (second compound 94.9 pM, first compound 9.49 µM): 99.4%
viability, T/C (second compound 94.9 pM, first compound 30 µM): 102%
viability, T/C [45]: 115%
viability, T/C [46]: 129%
viability, T/C [47]: 126%
viability, T/C [48]: 118%
viability, T/C (second compound 0.0003 µM, first compound 9.49 µM): 112%
viability, T/C (second compound 0.0003 µM, first compound 30 µM): 93.2%
viability, T/C [51]: 126%
viability, T/C [52]: 112%
viability, T/C [53]: 100%
viability, T/C [54]: 103%
viability, T/C (second compound 0.000949 µM, first compound 9.49 µM): 87.4%
viability, T/C (second compound 0.000949 µM, first compound 30 µM): 49.5%
viability, T/C [57]: 2.43%
viability, T/C [58]: 16.1%
viability, T/C [59]: 1.13%
viability, T/C [60]: 2.74%
viability, T/C (second compound 0.003 µM, first compound 9.49 µM): 0.95%
viability, T/C (second compound 0.003 µM, first compound 30 µM): 0.69%
